Values after ≈ are worked out from the molar mass of the structure shown.
System: E. coli BW25113 ΔtolC
Assay: Broth microdilution MIC, E. coli BW25113 ΔtolC
Format: cell-based
Settings: Escherichia coli
Excerpt: E. coli HS151 (ΔtolC) has been described previously. Gyrase inhibitor-resistant isolates (GYR101-108) were derived by selection for spontaneous resistance to MRL-770 or MRL-423 (Fig 1) in E. coli HS151 as described below. E. coli BW25113 and the Keio gene deletion collection based on BW25113 [25] were obtained from Thermo Fisher Scientific (Waltham, MA) and described in [26]. The plasmid-borne FQ resistance determinant, qnrVC3 [27], was kindly provided by D. Hooper (Massachusetts General Hospital). MB9796 (A. baumannii) is a derivative of MB9797 (ATCC19606) lacking lipopolysaccharide. The efflux-defective P. aeruginosa strain MB5890 (CB398) is a derivative of MB5919 (PAO1). MB2884 (E. coli) and CL15245 (K. pneumoniae) are clinical isolates from the Merck & Co., Inc., Kenilworth, NJ, USA, strain collection. S. aureus COL is a methicillin-resistant clinical isolate.
Compound doubling dilutions were prepared in 100% DMSO (Sigma Aldrich) and 2 μL of each dilution was transferred to a 96-well plate with lid (Thermo Scientific). Inoculum for all MIC testing was prepared using the BBL Prompt Inoculation System (Becton Dickinson, Franklin Lakes, NJ USA) as described by the manufacturer to produce a suspension of cells at approximately 1.5 x 10^8 colony forming units (CFU)/mL [34–36] and a further dilution (1:1000) was made into cation adjusted Mueller-Hinton broth (CAMH broth, Becton-Dickinson). One hundred μL of this inoculum were then transferred to each well of the 96-well plate containing diluted compound (above). Plates were covered and incubated overnight (18 hrs.) at 37°C.
The yacG deletion allele from the Keio collection was amplified by PCR (primers: […] and […]) and moved to BW25113 ΔtolC as described below. The E. coli strain BW25113 ΔtolC containing pKD46 [25] was used to inoculate SOB (Invitrogen)/0.2% w/v arabinose (Sigma Aldrich)/ampicillin (100 μg/mL) and grown overnight at 30°C. The overnight culture was then diluted 1/40 into 20 mL fresh SOB/0.2% w/v arabinose/ampicillin (100 μg/mL) and grown at 30°C while shaking for ~3 hrs until OD600 = 0.5. […]

Cn1ncc2cc(-c3cnnn3C3CCN(C(=O)Nc4cc(Cl)cc(Cl)c4)CC3)ccc21 [MRL-423]
MIC: 0.25 µg/mL (≈ 0.532 µM)

From article PMC5507300, “Antibacterial small molecules targeting the conserved TOPRIM domain of DNA gyrase” (PLoS ONE, 2017)
